Our source for the IC50 values is US20240368145A1, “METHODS FOR TREATING CANCER” (IMMUNIC AG, priority 2021, published 2024).

Holding throughout (type): cell-based
One assay has as its system CCRFCEM/VCR (ALL). The experiment in a line: Oncotest inhibition of viability, CCRFCEM/VCR. The conditions noted are these: Homo sapiens, CCRF-CEM; ALL cell line CCRFCEM/VCR; read-out: IC50 range.
In a further assay the test system is HL60 (AML). In words: Oncotest inhibition of viability, HL60. The note with it: Homo sapiens, HL-60; AML cell line HL60; read-out: IC50 range.
A further assay deals with EM2 (CML). The experiment in a line: Oncotest inhibition of viability, EM2. The note with it: CML cell line EM2; read-out: IC50 range.
In another assay the test system is JURLMK1 (CML). The experiment in a line: Oncotest inhibition of viability, JURLMK1. The note with it: CML cell line JURLMK1; read-out: IC50 range.
The subject of another assay is MEG01 (CML). In words: Oncotest inhibition of viability, MEG01. The note with it: Homo sapiens, MEG-01; CML cell line MEG01; read-out: IC50 range.
In the next assay the test system is HUT78 (NHL). In words: Oncotest inhibition of viability, HUT78. The note with it: Homo sapiens; NHL cell line HUT78; read-out: IC50 range.
A further assay deals with MYLA (NHL). In words: Oncotest inhibition of viability, MYLA. The note with it: NHL cell line MYLA; read-out: IC50 range.
The subject of the next assay is IM9 (MM). In words: Oncotest inhibition of viability, IM9. The note with it: MM cell line IM9; read-out: IC50 range.
For assay [1], the system named is 24 different hematological cell lines. The experiment in a line: Inhibition of viability in 24 different hematological cell lines (mean). The conditions noted are these: mean over 24 different hematological cell lines; read-out: geometrical mean IC50, inhibition of viability.

For orientation: IC50 means the point on the concentration scale where inhibition reaches its midpoint. As for `COC(=O)c1c(-c2c(F)cccc2Cl)noc1-c1cnn(-c2cccc(Cl)c2)c1C(F)(F)F` [Example 1, Methyl 3-(2-chloro-6-fluorophenyl)-5-(1-(3-chlorophenyl)-5-(trifluoromethyl)-1H-pyrazol-4-yl)isoxazole-4-carboxylate], the IC50 with CCRFCEM/VCR (ALL) is 10 to 100 nM; with HL60 (AML) it was less than 10 nM; in the assay with EM2 (CML) it was 10 to 100 nM; with JURLMK1 (CML) it was less than 10 nM; in the assay on MEG01 (CML), no less than 1000 nM; in the assay with HUT78 (NHL), less than 10 nM. The IC50 in the assay with MYLA (NHL) was 100 to 1000 nM; in the assay on IM9 (MM), less than 10 nM; in assay [1], less than 25 nM.
